In ChEMBL document CHEMBL3351616, “Synthesis and evaluation of novel benzophenone-thiazole derivatives as potent VEGF-A inhibitors” (Eur J Med Chem, 2014):

Assay: Cytotoxicity against mouse DLA cells after 48 hrs by MTT method
Type: functional, cell-based
Conditions: not given

Row | SMILES | IC50
1 | O=C(COc1ccc(C(=O)c2ccccc2)cc1Br)Nc1nc(-c2ccccc2)cs1 | 43.1 µM
2 | Cc1cc(C(=O)c2ccccc2F)ccc1OCC(=O)Nc1nc(-c2ccccc2)cs1 | 14.8 µM
3 | Cc1cc(C(=O)c2ccccc2)ccc1OCC(=O)Nc1nc(-c2ccccc2)cs1 | 22.3 µM
4 | Cc1cc(C(=O)c2cccc(Br)c2)ccc1OCC(=O)Nc1nc(-c2ccccc2)cs1 | 23.8 µM
5 | Cc1cc(C(=O)c2ccc(F)cc2)ccc1OCC(=O)Nc1nc(-c2ccccc2)cs1 | 33.3 µM
6 | COc1ccc(-c2csc(NC(=O)COc3ccc(C(=O)c4cccc(Br)c4)cc3C)n2)cc1 | 36.6 µM
7 | O=c1[nH]cc(F)c(=O)[nH]1 [FLUOROURACIL] | 15.6 µM
8 | COc1ccc(-c2csc(NC(=O)COc3ccc(C(=O)c4ccccc4)cc3C)n2)cc1 | 25.7 µM

Assay: Cytotoxicity against mouse EAC cells after 48 hrs by LDH release assay
Type: functional, cell-based
Conditions: Ehrlich

Row | SMILES | IC50
9 | O=C(COc1ccc(C(=O)c2ccccc2)cc1Br)Nc1nc(-c2ccccc2)cs1 | 46.4 µM
10 | Cc1cc(C(=O)c2ccccc2F)ccc1OCC(=O)Nc1nc(-c2ccccc2)cs1 | 16.9 µM
11 | Cc1cc(C(=O)c2ccccc2)ccc1OCC(=O)Nc1nc(-c2ccccc2)cs1 | 24.5 µM
12 | Cc1cc(C(=O)c2cccc(Br)c2)ccc1OCC(=O)Nc1nc(-c2ccccc2)cs1 | 25.9 µM
13 | Cc1cc(C(=O)c2ccc(F)cc2)ccc1OCC(=O)Nc1nc(-c2ccccc2)cs1 | 38.6 µM
14 | COc1ccc(-c2csc(NC(=O)COc3ccc(C(=O)c4cccc(Br)c4)cc3C)n2)cc1 | 40.6 µM
15 | O=c1[nH]cc(F)c(=O)[nH]1 [FLUOROURACIL] | 15.4 µM
16 | COc1ccc(-c2csc(NC(=O)COc3ccc(C(=O)c4ccccc4)cc3C)n2)cc1 | 28.6 µM

Assay: Cytotoxicity against mouse EAC cells after 48 hrs by trypan blue dye exclusion method
Type: functional, cell-based
Conditions: Ehrlich

Row | SMILES | IC50
17 | O=C(COc1ccc(C(=O)c2ccccc2)cc1Br)Nc1nc(-c2ccccc2)cs1 | 45.8 µM
18 | Cc1cc(C(=O)c2ccccc2F)ccc1OCC(=O)Nc1nc(-c2ccccc2)cs1 | 15.4 µM
19 | Cc1cc(C(=O)c2ccccc2)ccc1OCC(=O)Nc1nc(-c2ccccc2)cs1 | 22.3 µM
20 | Cc1cc(C(=O)c2cccc(Br)c2)ccc1OCC(=O)Nc1nc(-c2ccccc2)cs1 | 24.3 µM
21 | Cc1cc(C(=O)c2ccc(F)cc2)ccc1OCC(=O)Nc1nc(-c2ccccc2)cs1 | 35.2 µM
22 | COc1ccc(-c2csc(NC(=O)COc3ccc(C(=O)c4cccc(Br)c4)cc3C)n2)cc1 | 38.1 µM
23 | O=c1[nH]cc(F)c(=O)[nH]1 [FLUOROURACIL] | 14.6 µM
24 | COc1ccc(-c2csc(NC(=O)COc3ccc(C(=O)c4ccccc4)cc3C)n2)cc1 | 27.1 µM

Assay: Cytotoxicity against mouse EAC cells after 48 hrs by MTT method
Type: functional, cell-based
Conditions: Ehrlich

Row | SMILES | IC50
25 | O=C(COc1ccc(C(=O)c2ccccc2)cc1Br)Nc1nc(-c2ccccc2)cs1 | 46 µM
26 | Cc1cc(C(=O)c2ccccc2F)ccc1OCC(=O)Nc1nc(-c2ccccc2)cs1 | 16.7 µM
27 | Cc1cc(C(=O)c2ccccc2)ccc1OCC(=O)Nc1nc(-c2ccccc2)cs1 | 24 µM
28 | Cc1cc(C(=O)c2cccc(Br)c2)ccc1OCC(=O)Nc1nc(-c2ccccc2)cs1 | 24.4 µM
29 | Cc1cc(C(=O)c2ccc(F)cc2)ccc1OCC(=O)Nc1nc(-c2ccccc2)cs1 | 37.4 µM
30 | COc1ccc(-c2csc(NC(=O)COc3ccc(C(=O)c4cccc(Br)c4)cc3C)n2)cc1 | 39.2 µM
31 | COc1ccc(-c2csc(NC(=O)COc3ccc(C(=O)c4ccccc4)cc3C)n2)cc1 | 28.4 µM

Assay: Cytotoxicity against mouse DLA cells after 48 hrs by trypan blue dye exclusion method
Type: functional, cell-based
Conditions: not given

Row | SMILES | IC50
32 | O=C(COc1ccc(C(=O)c2ccccc2)cc1Br)Nc1nc(-c2ccccc2)cs1 | 42 µM
33 | Cc1cc(C(=O)c2ccccc2F)ccc1OCC(=O)Nc1nc(-c2ccccc2)cs1 | 13.7 µM
34 | Cc1cc(C(=O)c2ccccc2)ccc1OCC(=O)Nc1nc(-c2ccccc2)cs1 | 21.5 µM
35 | Cc1cc(C(=O)c2cccc(Br)c2)ccc1OCC(=O)Nc1nc(-c2ccccc2)cs1 | 21.7 µM
36 | Cc1cc(C(=O)c2ccc(F)cc2)ccc1OCC(=O)Nc1nc(-c2ccccc2)cs1 | 32.1 µM
37 | COc1ccc(-c2csc(NC(=O)COc3ccc(C(=O)c4cccc(Br)c4)cc3C)n2)cc1 | 35.4 µM
38 | O=c1[nH]cc(F)c(=O)[nH]1 [FLUOROURACIL] | 15.3 µM
39 | COc1ccc(-c2csc(NC(=O)COc3ccc(C(=O)c4ccccc4)cc3C)n2)cc1 | 24.2 µM

Assay: Cytotoxicity against mouse DLA cells after 48 hrs by LDH release assay
Type: functional, cell-based
Conditions: not given

Row | SMILES | IC50
40 | O=C(COc1ccc(C(=O)c2ccccc2)cc1Br)Nc1nc(-c2ccccc2)cs1 | 43.5 µM
41 | Cc1cc(C(=O)c2ccccc2F)ccc1OCC(=O)Nc1nc(-c2ccccc2)cs1 | 15.6 µM
42 | Cc1cc(C(=O)c2ccccc2)ccc1OCC(=O)Nc1nc(-c2ccccc2)cs1 | 23 µM
43 | Cc1cc(C(=O)c2cccc(Br)c2)ccc1OCC(=O)Nc1nc(-c2ccccc2)cs1 | 23.6 µM
44 | Cc1cc(C(=O)c2ccc(F)cc2)ccc1OCC(=O)Nc1nc(-c2ccccc2)cs1 | 34.7 µM
45 | COc1ccc(-c2csc(NC(=O)COc3ccc(C(=O)c4cccc(Br)c4)cc3C)n2)cc1 | 37.1 µM
46 | O=c1[nH]cc(F)c(=O)[nH]1 [FLUOROURACIL] | 16.8 µM
47 | COc1ccc(-c2csc(NC(=O)COc3ccc(C(=O)c4ccccc4)cc3C)n2)cc1 | 26.2 µM
